From PMC9452538, “The antimicrobial peptide LI14 combats multidrug-resistant bacterial infections” (Communications Biology, 2022)

Key:
[1] = system: sensitive E. coli ATCC 25922; assay: Checkerboard assay with LI14; type: cell-based, Escherichia coli; settings: for FIC index: antibiotic in combination with LI14, checkerboard; for MICa of antibiotic: in the absence of LI14
Experimental: (§1) Through checkerboard assay using two-fold serially diluted drugs (8 × 8 matrix), we evaluated the synergistic effects of LI14 with different mechanisms of antibiotics. The absorbance of cultures at 600 nm was determined by a Microplate reader after 18 h of incubation with (1.5 × 10^6 CFUs/mL) bacterial suspension. The FIC index (FICI) was calculated by performing two biological replicates for each combination. The formula is as follows: FIC index = FICIa + FICIb = MICab/MICa + MICba/Mb. An FIC index of ≤0.5 indicates synergy.
(§2) a/bMICs of antibiotics in the absence or presence of ¼ MIC of LI14.
(§3) cDegree of antibiotics potentiation in the presence of ¼ MIC of LI14.
(§4) –, none of potentiation activity.

[2] = system: MDR E. coli B2; assay: Checkerboard assay with LI14; type: cell-based, Escherichia coli; settings: for FIC index: antibiotic in combination with LI14, checkerboard 8 × 8, 18 h, ≤0.5 = synergy; for Potentiation: antibiotic potentiation in the presence of ¼ MIC of LI14; for MICa of antibiotic: in the absence of LI14; for MICb of antibiotic: in the presence of ¼ MIC of LI14
Experimental: as §1, §2, §3, §4

[3] = system: E. coli ATCC 25922; assay: Resistance development study, serial passages; type: cell-based, Escherichia coli; settings: 80 serial passages at sub-inhibitory concentration (0.5-fold MIC)
Experimental: (§5) The ability of LI14 peptide to induce resistance was studied as previously described. Resistance to the therapeutically important drugs rifampicin and ciprofloxacin was measured using S. aureus ATCC 29213 and E. coli ATCC 25922 as test strains. The middle and final MICs were monitored after eighty such serial passages exposed to the tested medicines (0.5-fold MIC), and the fold change in MIC increase was recorded.

[4] = system: MRSA T144; assay: Checkerboard assay with LI14; type: cell-based, Staphylococcus aureus
Experimental: as §1, §2, §3, §4

[5] = system: S. aureus ATCC 29213; assay: Resistance development study, serial passages; type: cell-based, Staphylococcus aureus; settings: 80 serial passages at sub-inhibitory concentration (0.5-fold MIC)
Experimental: as §5

[6] = system: E. coli B2; assay: Neutropenic mouse thigh infection model; type: in vivo, CD-1 mice; settings: RIF 20 mg/kg i.p., 48 h
Experimental: Female CD-1 mice (n = 6 biologically independent animals per group) were first given cyclophosphamide (two consecutive injections of 150 and 100 mg kg^−1 at 4 and 1 day before infection) to construct neutropenia models. The mice’s right thighs were then injected with 100 μL MRSA T144 or E. coli B2 suspensions (10^5 CFUs per mouse). Post-infection of 1 h, 100 μL LI14 peptide (10 or 20 mg/kg), ampicillin/rifampicin (20 mg/kg) or a combination of LI14 with ampicillin/ rifampicin (10 + 20 mg/kg) were given by intraperitoneal injection. All mice were euthanized 48 h after drug administration, and right thigh muscle tissue was removed aseptically, homogenized, serially diluted, and plated on MHA to qualify bacterial loads after overnight incubation at 37 °C.

[7] = system: E. coli ATCC 25922; assay: microbe, parasite or virus in culture; type: cell-based, Escherichia coli; settings: E. coli ATCC 25922; MHB, 16-18 h, 37 °C
Experimental: (§6) An antimicrobial activity study was conducted on all peptides against a panel of laboratory bacteria, including ATCC source and clinical isolates with resistance determinants. According to CLSI2021 guidelines, we tested the minimum inhibitory concentrations (MICs) of peptides using standard broth micro-dilutions. Briefly, bacteria grown to exponential phase were diluted in 1:1000 to MHB, subsequently, equivalent amounts of bacterial suspension (1.5 × 10^6 CFUs/mL) were mixed with different concentrations of peptides in a sterilized 96-well microtiter plate (Corning).

[8] = system: E. coli B2 (blaNDM-5 + mcr-1); assay: microbe, parasite or virus in culture; type: cell-based, Escherichia coli; settings: E. coli B2 (blaNDM-5 + mcr-1); MHB, 16-18 h, 37 °C
Experimental: as §6

[9] = system: P. cibarius HNCF44W (blaNDM-1 + tet(X6)); assay: organism not typed; type: cell-based; settings: P. cibarius HNCF44W (blaNDM-1 + tet(X6)); MHB, 16-18 h, 37 °C
Experimental: as §6

[10] = system: S. aureus 215 (cfr + LZD^R); assay: MIC broth microdilution; type: cell-based, Staphylococcus aureus; settings: S. aureus 215 (cfr + LZD^R); MHB, 16-18 h, 37 °C
Experimental: as §6

[11] = system: S. aureus G16 (RIF^R); assay: MIC broth microdilution; type: cell-based, Staphylococcus aureus; settings: S. aureus G16 (RIF^R); MHB, 16-18 h, 37 °C
Experimental: as §6

[12] = system: P. aeruginosa PA14; assay: microbe, parasite or virus in culture; type: cell-based, Pseudomonas aeruginosa; settings: P. aeruginosa PA14; MHB, 16-18 h, 37 °C
Experimental: as §6

[13] = system: MRSA 1518; assay: microbe, parasite or virus in culture; type: cell-based, Staphylococcus aureus; settings: MRSA 1518; MHB, 16-18 h, 37 °C
Experimental: as §6

[14] = system: MRSA 1530; assay: microbe, parasite or virus in culture; type: cell-based, Staphylococcus aureus; settings: MRSA 1530; MHB, 16-18 h, 37 °C
Experimental: as §6

[15] = system: E. coli B3-1 (tet(X4)); assay: microbe, parasite or virus in culture; type: cell-based, Escherichia coli; settings: E. coli B3-1 (tet(X4)); MHB, 16-18 h, 37 °C
Experimental: as §6

[16] = system: E. coli CP131 (mcr-3); assay: microbe, parasite or virus in culture; type: cell-based, Escherichia coli; settings: E. coli CP131 (mcr-3); MHB, 16-18 h, 37 °C
Experimental: as §6

[17] = system: E. coli G92 (mcr-1); assay: microbe, parasite or virus in culture; type: cell-based, Escherichia coli; settings: E. coli G92 (mcr-1); MHB, 16-18 h, 37 °C
Experimental: as §6

[18] = system: E. coli 1F28 (tet(X4)); assay: microbe, parasite or virus in culture; type: cell-based, Escherichia coli; settings: E. coli 1F28 (tet(X4)); MHB, 16-18 h, 37 °C
Experimental: as §6

[19] = system: E. coli G6 (blaNDM-5); assay: microbe, parasite or virus in culture; type: cell-based, Escherichia coli; settings: E. coli G6 (blaNDM-5); MHB, 16-18 h, 37 °C
Experimental: as §6

[20] = system: E. coli C3 (blaNDM-1); assay: microbe, parasite or virus in culture; type: cell-based, Escherichia coli; settings: E. coli C3 (blaNDM-1); MHB, 16-18 h, 37 °C
Experimental: as §6

[21] = system: A. baumannii ATCC 19609; assay: microbe, parasite or virus in culture; type: cell-based, Acinetobacter baumannii; settings: A. baumannii ATCC 19609; MHB, 16-18 h, 37 °C
Experimental: as §6

[22] = system: A. baumannii C222 (tet(X6)); assay: microbe, parasite or virus in culture; type: cell-based, Acinetobacter baumannii; settings: A. baumannii C222 (tet(X6)); MHB, 16-18 h, 37 °C
Experimental: as §6

[23] = system: E. coli DH5α (PUC19-mcr-1); assay: MIC broth microdilution; type: cell-based, Escherichia coli; settings: engineered E. coli DH5α (PUC19-mcr-1); MHB, 16-18 h, 37 °C
Experimental: as §6

[24] = system: E. coli DH5α (PUC19); assay: MIC broth microdilution; type: cell-based, Escherichia coli; settings: engineered E. coli DH5α (PUC19); MHB, 16-18 h, 37 °C
Experimental: as §6

[25] = system: E. faecium 5F-10; assay: microbe, parasite or virus in culture; type: cell-based, Enterococcus faecium; settings: E. faecium 5F-10; MHB, 16-18 h, 37 °C
Experimental: as §6

[26] = system: K. pneumoniae D120 (mcr-8); assay: microbe, parasite or virus in culture; type: cell-based, Klebsiella pneumoniae; settings: K. pneumoniae D120 (mcr-8); MHB, 16-18 h, 37 °C
Experimental: as §6

[27] = system: K. pneumoniae ATCC 700603; assay: microbe, parasite or virus in culture; type: cell-based, Klebsiella pneumoniae; settings: K. pneumoniae ATCC 700603; MHB, 16-18 h, 37 °C
Experimental: as §6

[28] = system: S. enteritidis ATCC 13076; assay: microbe, parasite or virus in culture; type: cell-based; settings: S. enteritidis ATCC 13076; MHB, 16-18 h, 37 °C
Experimental: as §6

[29] = system: E. faecalis A4 (VRE, VanA); assay: microbe, parasite or virus in culture; type: cell-based; settings: E. faecalis A4 (VRE, VanA); MHB, 16-18 h, 37 °C
Experimental: as §6

[30] = system: E. faecalis 1F-1; assay: microbe, parasite or virus in culture; type: cell-based; settings: E. faecalis 1F-1; MHB, 16-18 h, 37 °C
Experimental: as §6

[31] = system: MRSA T144; assay: microbe, parasite or virus in culture; type: cell-based, Staphylococcus aureus; settings: MRSA T144; MHB, 16-18 h, 37 °C
Experimental: as §6

[32] = system: S. aureus ATCC 29213; assay: microbe, parasite or virus in culture; type: cell-based, Staphylococcus aureus; settings: S. aureus ATCC 29213; MHB, 16-18 h, 37 °C
Experimental: as §6

[33] = in the presence of ¼ MIC of LI14

Compound: O=C(O)c1cn(C2CC2)c2cc(N3CCNCC3)c(F)cc2c1=O [Ciprofloxacin]
- FIC index [1]: 1.5
- MICa of antibiotic [1]: 0.008 µg/mL
- MICb of antibiotic [1, 33]: 0.008 µg/mL
- FIC index [2]: 0.188
- Potentiation [2]: 8 fold
- MICa of antibiotic [2]: 32 µg/mL
- MICb of antibiotic [2]: 4 µg/mL
- Increase in MIC after serial passages [3]: 256 fold
- FIC index ([4]; antibiotic in combination with LI14, checkerboard): 2.0
- MICa of antibiotic ([4]; in the absence of LI14): 2 µg/mL
- MICb of antibiotic [4, 33]: 2 µg/mL

Compound: CO[C@H]1/C=C/O[C@@]2(C)Oc3c(C)c(O)c4c(O)c(c(/C=N/N5CCN(C)CC5)c(O)c4c3C2=O)NC(=O)/C(C)=C\C=C\[C@H](C)[C@H](O)[C@@H](C)[C@@H](O)[C@@H](C)[C@H](OC(C)=O)[C@@H]1C [Rifampicin]
- FIC index [1]: < 0.078
- MICa of antibiotic [1]: > 128 µg/mL
- MICb of antibiotic [1, 33]: 2 µg/mL
- Potentiation [1, 33]: > 64 fold
- FIC index [2]: < 0.078
- Potentiation [2]: > 64 fold
- MICa of antibiotic [2]: > 128 µg/mL
- MICb of antibiotic [2]: 2 µg/mL
- Increase in MIC after serial passages [5]: 1024 fold
- Bacterial load in thigh ([6]; animal 1): 6.89 Log10CFUs/thigh
- Bacterial load in thigh ([6]; animal 2): 6.97 Log10CFUs/thigh
- Bacterial load in thigh ([6]; animal 3): 7.76 Log10CFUs/thigh
- Bacterial load in thigh ([6]; animal 4): 7.96 Log10CFUs/thigh
- Bacterial load in thigh ([6]; animal 5): 6.83 Log10CFUs/thigh
- Bacterial load in thigh ([6]; animal 6): 6.97 Log10CFUs/thigh

Compound: Colistin
- MIC [7]: 0.5 µg/mL
- MIC [8]: 8 µg/mL
- FIC index [2]: 2
- MICa of antibiotic [2]: 8 µg/mL
- MICb of antibiotic [2]: 8 µg/mL
- MIC [9]: >256 µg/mL
- MIC [10]: 16 µg/mL
- MIC [11]: 1 µg/mL
- MIC [12]: 1 µg/mL
- MIC [13]: 16 µg/mL
- MIC [14]: 16 µg/mL
- MIC [15]: 0.0625 µg/mL
- MIC [16]: 2 µg/mL
- MIC [17]: 4 µg/mL
- MIC [18]: 0.125 µg/mL
- MIC [19]: 0.5 µg/mL
- MIC [20]: <0.125 µg/mL
- MIC [21]: 0.125 µg/mL
- MIC [22]: <0.125 µg/mL
- MIC [23]: 2 µg/mL
- MIC [24]: <0.125 µg/mL
- MIC [25]: >64 µg/mL
- MIC [26]: 4 µg/mL
- MIC [27]: 1 µg/mL
- MIC [28]: 0.25 µg/mL
- MIC [29]: 64 µg/mL
- MIC [30]: >64 µg/mL
- MIC [31]: 16 µg/mL
- MIC [32]: 16 µg/mL
